Results as given in the supplement of paper PMC11665569.

Key:
SW1573 = assay: relative viability (fraction of vehicle control); higher = more viable / less inhibited; settings: treatment time: 5 days
Description: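 CCK-8 viability of SW1573 cells transfected with control, YAP/TAZ or TEAD1-4 siRNAs and treated with KRAS G12C inhibitors for 5 days. Values are normalised to vehicle control.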

KYSE410 = assay: as above; settings: treatment time: 5 days
Description: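 CCK-8 viability of KYSE410 cells transfected with control, YAP/TAZ or TEAD1-4 siRNAs and treated with KRAS G12C inhibitors for 5 days. Values are normalised to vehicle control.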

C=C(F)C(=O)N1CCN(c2nc(OC[C@@H]3CCCN3C)nc3c2CCN(c2cccc4cccc(Cl)c24)C3)C[C@@H]1CC#N [MRTX849]
relative viability
Settings	KYSE410	SW1573
log10 concentration (uM): 0, siRNA knockdown: TEAD1-4 siRNA 1	0.319	–
log10 concentration (uM): 0, siRNA knockdown: TEAD1-4 siRNA 2	0.212	–
log10 concentration (uM): 0, siRNA knockdown: YAP/TAZ siRNA 1	0.273	–
log10 concentration (uM): 0, siRNA knockdown: YAP/TAZ siRNA 2	0.298	–
log10 concentration (uM): 0, siRNA knockdown: negative control siRNA	0.646	–
log10 concentration (uM): 0.69897, siRNA knockdown: TEAD1-4 siRNA 1	0.0217	–
log10 concentration (uM): 0.69897, siRNA knockdown: TEAD1-4 siRNA 2	0.0146	–
log10 concentration (uM): 0.69897, siRNA knockdown: YAP/TAZ siRNA 1	0.00876	–
log10 concentration (uM): 0.69897, siRNA knockdown: YAP/TAZ siRNA 2	0.00963	–
log10 concentration (uM): 0.69897, siRNA knockdown: negative control siRNA	0.0324	–
log10 concentration (uM): -0.30103, siRNA knockdown: TEAD1-4 siRNA 1	0.419	–
log10 concentration (uM): -0.30103, siRNA knockdown: TEAD1-4 siRNA 2	0.317	–
log10 concentration (uM): -0.30103, siRNA knockdown: YAP/TAZ siRNA 1	0.381	–
log10 concentration (uM): -0.30103, siRNA knockdown: YAP/TAZ siRNA 2	0.395	–
log10 concentration (uM): -0.30103, siRNA knockdown: negative control siRNA	0.715	–
log10 concentration (uM): -1, siRNA knockdown: TEAD1-4 siRNA 1	0.582	–
log10 concentration (uM): -1, siRNA knockdown: TEAD1-4 siRNA 2	0.45	–
log10 concentration (uM): -1, siRNA knockdown: YAP/TAZ siRNA 1	0.481	–
log10 concentration (uM): -1, siRNA knockdown: YAP/TAZ siRNA 2	0.445	–
log10 concentration (uM): -1, siRNA knockdown: negative control siRNA	0.788	–
log10 concentration (uM): -1.30103, siRNA knockdown: TEAD1-4 siRNA 1	0.704	–
log10 concentration (uM): -1.30103, siRNA knockdown: TEAD1-4 siRNA 2	0.572	–
log10 concentration (uM): -1.30103, siRNA knockdown: YAP/TAZ siRNA 1	0.559	–
log10 concentration (uM): -1.30103, siRNA knockdown: YAP/TAZ siRNA 2	0.525	–
log10 concentration (uM): -1.30103, siRNA knockdown: negative control siRNA	0.814	–
log10 concentration (uM): -2, siRNA knockdown: TEAD1-4 siRNA 1	0.871	–
log10 concentration (uM): -2, siRNA knockdown: TEAD1-4 siRNA 2	0.648	–
log10 concentration (uM): -2, siRNA knockdown: YAP/TAZ siRNA 1	0.767	–
log10 concentration (uM): -2, siRNA knockdown: YAP/TAZ siRNA 2	0.735	–
log10 concentration (uM): -2, siRNA knockdown: negative control siRNA	0.942	–
log10 concentration (uM): -2.30103, siRNA knockdown: TEAD1-4 siRNA 1	0.873	–
log10 concentration (uM): -2.30103, siRNA knockdown: TEAD1-4 siRNA 2	0.793	–
log10 concentration (uM): -2.30103, siRNA knockdown: YAP/TAZ siRNA 1	0.855	0.345
log10 concentration (uM): -2.30103, siRNA knockdown: YAP/TAZ siRNA 2	0.868	0.308
log10 concentration (uM): -2.30103, siRNA knockdown: negative control siRNA	0.937	0.915
log10 concentration (uM): -3, siRNA knockdown: TEAD1-4 siRNA 1	0.888	0.913
log10 concentration (uM): -3, siRNA knockdown: TEAD1-4 siRNA 2	0.869	0.702
log10 concentration (uM): -3, siRNA knockdown: YAP/TAZ siRNA 1	0.936	0.582
log10 concentration (uM): -3, siRNA knockdown: YAP/TAZ siRNA 2	0.915	0.531
log10 concentration (uM): -3, siRNA knockdown: negative control siRNA	0.981	0.978
log10 concentration (uM): -4, siRNA knockdown: TEAD1-4 siRNA 1	1.04	0.988
log10 concentration (uM): -4, siRNA knockdown: TEAD1-4 siRNA 2	0.951	0.877
log10 concentration (uM): -4, siRNA knockdown: YAP/TAZ siRNA 1	0.946	0.915
log10 concentration (uM): -4, siRNA knockdown: YAP/TAZ siRNA 2	1.01	0.845
log10 concentration (uM): -4, siRNA knockdown: negative control siRNA	0.987	0.997
